Like-named read-outs stand apart in the source and are kept apart here.
Columns and labels:
[1] = target: Recombinant human Syk (amino acids 342-635) (Homo sapiens (Human), UniProt P43405); assay: Syk Kinase Test (Kinase Glo luminescence); format: biochemical
Description: (§1) The output file of the reader is a csv file that contains the well number and measured relative light units (RLU). For data evaluation and calculation, the measurement of the negative control was set as 100% ctrl and the measurement of the positive control was set as 0% ctrl. Based on this values the % value for the measurement of each substance concentration was calculated using an Assay Explorer software (Accelrys). Normally, the % ctrl values calculated are between 0% and 100% values but may also occur outside these limits in individual cases based on variability or compound characteristics. The IC50 values were calculated from the % ctrl values using Assay Explorer software. Calculation: [y=(a−d)/(1+(x/c)^b)+d] a=low value, d=high value; x=conc M; c=IC50 M; b=hill; y=% ctrl.

[2] = target: Recombinant human Aurora B (amino acids 1-344) (Homo sapiens (Human), UniProt Q96GD4); assay: Aurora B Kinase Test (ADP Glo luminescence); format: biochemical
Chain of Recombinant human Aurora B (amino acids 1-344) (Q96GD4 whole entry, the tested form may be a part): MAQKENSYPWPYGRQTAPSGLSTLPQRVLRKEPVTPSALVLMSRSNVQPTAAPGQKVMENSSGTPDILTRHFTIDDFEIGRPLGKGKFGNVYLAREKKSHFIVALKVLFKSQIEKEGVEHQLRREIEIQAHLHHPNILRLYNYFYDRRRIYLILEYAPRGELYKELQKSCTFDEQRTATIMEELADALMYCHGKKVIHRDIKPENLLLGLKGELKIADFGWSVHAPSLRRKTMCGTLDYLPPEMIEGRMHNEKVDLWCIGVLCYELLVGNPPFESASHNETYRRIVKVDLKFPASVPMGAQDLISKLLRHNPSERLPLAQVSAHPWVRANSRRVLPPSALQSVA
Description: The activity of the Aurora B kinase protein was determined using the ADP Glo® Luminescence Kinase test (Promega; V9103X).
Serial Dilution is done in 1:10 steps in 100% DMSO.
Then 20 μl Kinase detection mix (Detection Buffer #V913B Promega; Kinase Detection Substrate #V914B Promega) were added and incubated for 40 minutes at room temperature.
as §1, with “measured RLU.” for “measured relative light units (RLU).”, “as 0%” for “as 100%”, “as 100%” for “as 0%”, “Calculation: [y=(a−d)/(1+(x/c)^b)+d],” for “Calculation: [y=(a−d)/(1+(x/c)^b)+d]”

FLT3 = FLT3 (Homo sapiens (Human), UniProt P36888); assay: FLT3 Kinase Test (Z'-LYTE); format: biochemical
Chain of FLT3 (P36888 564-958): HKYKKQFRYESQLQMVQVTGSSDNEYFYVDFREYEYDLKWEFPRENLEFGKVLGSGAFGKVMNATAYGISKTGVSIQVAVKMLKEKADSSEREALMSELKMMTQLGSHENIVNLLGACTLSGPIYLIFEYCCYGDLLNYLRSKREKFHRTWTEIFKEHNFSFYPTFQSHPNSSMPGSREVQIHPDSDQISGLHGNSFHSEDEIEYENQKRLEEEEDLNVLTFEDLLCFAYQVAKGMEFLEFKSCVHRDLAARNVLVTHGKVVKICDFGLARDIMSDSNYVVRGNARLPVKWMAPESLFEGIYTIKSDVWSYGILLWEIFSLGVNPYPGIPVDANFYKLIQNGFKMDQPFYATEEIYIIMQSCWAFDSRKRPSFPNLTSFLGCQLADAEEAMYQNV
Description: The activity of FLT3 is measured using the Z′-LYTE™ assay technology from Invitrogen (#PV3191)
The reaction is started by addition of 2.5 μl of the 4×ATP solution.
(§2) Positive controls are reaction mixtures containing no test compound; negative controls (blanks) are reaction mixtures containing no kinase. As a further control, the phosphopeptide solution is added to wells without kinase (=100% phosphorylation control).
The reaction is performed for 1 h at room temperature before 5 μl of the development solution is added. After a further incubation for 1 h at room temperature 5 μl of the stop reagent is added.
The output text file is evaluated in an “MS-Excel-VB-Makro” and “GraphPadPrism” (Version 5) (GraphPad Software Inc.) is used to calculate the results. Data for the inhibition of FLT3 are reported in M. data for the inhibition of the protease are reported in % CTL.

[3] = Human Liver Microsomal Stability Test; format: in vitro ADME; details: human liver microsomes
Description: The metabolic degradation for a specific SYK-inhibitor is performed at 37° C. with pooled human liver microsomes (human liver microsomes are commercially available as “BD UltraPool™” by Corning Life Sciences, Fogostraat 12, 1060 LJ Amsterdam, The Netherlands). The final incubation volume of 100 μl per time point contains TRIS buffer pH 7.6 at RT (0.1 M), magnesium chloride (5 mM), microsomal protein (1 mg/ml) and the test compound at a final concentration of 1 μM.
Following a short preincubation period at 37° C., the reaction is initiated by addition of beta-nicotinamide adenine dinucleotide phosphate in its reduced form (NADPH, 1 mM) and terminated by transfering an aliquot into solvent after different time points. Additionally, the NADPH-independent degradation is monitored in incubations without NADPH, terminated at the last time point.
The quenched (terminated) incubations are then pelleted by centrifugation (10000 g, 5 min).
An aliquot of the supernatant is assayed by LC-MS/MS for the remaining amount of parent compound. The half-life (t½ INVITRO) is determined by the slope of the semilogarithmic plot of the concentration-time profile.
The intrinsic clearance (CL_[…]) is calculated by considering the amount of protein in the incubation: CL_[…] [μl/min/mg protein]=(Ln 2/(t½INVITRO [min]*protein content [mg/ml]))*1000
The protein content [mg/ml] was determined with the “Bicinchoninic Acid Kit” of Sigma Aldrich (commercially available).
The upscaled intrinsic Clearance (CL_UP_INT) is calcuated by considering the liver weight [g liver/kg body weight] and the microsomal recovery [mg protein/g liver]: CL_UP_INT [ml/min/kg]=0.001*CL_[…]*liver weight*microsomal recovery • with microsomal recovery=45 mg protein/g liver • with liver weight=25.7 g liver/kg body weight
The percent hepatic blood flow (% Qh) is finally calculated by considering the human liver blood flow Q [ml/min/kg]: % Qh [%]=((Q*CL_UP_INT)/(Q+CL_UP_INT)/Q)*100 • with liver blood flow (Q)=20.7 ml/min/kg.

Human GSK3beta = Human GSK3beta (Homo sapiens (Human), UniProt P49841); assay: GSK 3β Kinase-Test (Z'-LYTE); format: biochemical; details: comparison compounds, read-out: IC50 in μM (GSK3beta-Inhibition)
Chain of Human GSK3beta (P49841 whole entry): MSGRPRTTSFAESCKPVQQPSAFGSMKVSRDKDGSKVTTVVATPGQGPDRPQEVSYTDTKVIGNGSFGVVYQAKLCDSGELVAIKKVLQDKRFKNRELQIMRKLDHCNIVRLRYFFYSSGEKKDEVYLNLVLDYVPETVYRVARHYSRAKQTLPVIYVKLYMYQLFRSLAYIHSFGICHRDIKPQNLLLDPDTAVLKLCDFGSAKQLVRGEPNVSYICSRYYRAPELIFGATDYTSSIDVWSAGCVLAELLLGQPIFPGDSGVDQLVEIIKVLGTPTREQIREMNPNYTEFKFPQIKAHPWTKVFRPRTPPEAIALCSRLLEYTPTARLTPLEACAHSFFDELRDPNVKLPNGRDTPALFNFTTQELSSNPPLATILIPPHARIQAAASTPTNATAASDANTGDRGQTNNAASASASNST
Description: Human GSK3beta (expressed and prified from SF21 cells) is obtained from the University Dundee/Scotland (Dr. James Hastie—Dept. of Biochemistry) in 50 mM Tris (pH7.5); 150 mM NaCl; 0.1 mM EGTA, 270 mM Succrose, 0.1% B-mercaptoethanol, 1 mM benzamidine, 0.2 mM PMSF; sequence see below). The enzyme is diluted to 3.56 μM (168 μg/ml) in enzyme dilution buffer and 6 μl aliquots are stored at −80° C.
The activity of GSK3 kinase protein is measured using the Z′-LYTE™ assay technology from Invitrogen (# PV3324).
The assay is performed in 384 black plates from Corning (#3676) in a final volume of 10 μl by adding 5 μl of kinase peptide mix and 2.5 μl of compound dilution. The reaction is started by addition of 2.5 μl of the 4×ATP solution.
as §2, with “ATP.” for “kinase.”, “kinase and without ATP” for “kinase”, “control). The non inhibited kinase reaction will result in a phosphorylation corresponding to 20%-30% of the phosphorylation control.” for “control).”
The reaction is performed 1 h at room temperature. After 1 h 5 μl of the development solution is added. After a further incubation for 1 h at room temperature 5 μl of the stop reagent is added. Finally the plates are read on a Flex Station II 384 (Molecular Devices).
The output text file is evaluated in an “MS-Excel-VB-Makro” and “GraphPadPrism” (Version 5) (GraphPad Software Inc.) is used to calculate the results. Data for the inhibition of GSK3beta are reported in M. data for the inhibition of the protease are reported in % CTL.

[4] = comparison compounds, Example numbers of WO 2011/092128, read-out: IC50 in μM (SYK-Inhibition)
[5] = comparison compounds, Example numbers of WO 2011/092128, read-out: IC50 in μM (AURB-Inhibition)
[6] = comparison compounds, Example numbers of WO 2011/092128, read-out: IC50 in μM (FLT3-Inhibition)
[7] = compounds of the invention (own Example numbers)
[8] = comparison compounds, Example numbers of WO 2013/014060, read-out: IC50 in μM (SYK-Inhibition)
[9] = comparison compounds, Example numbers of WO 2013/014060, read-out: IC50 in μM (AURB-Inhibition)
[10] = comparison compounds, Example numbers of WO 2013/014060, read-out: IC50 in μM (FLT3-Inhibition)
[11] = comparison compounds, Example numbers of WO 2013/014060
[12] = Example numbers of WO 2013/014060

COc1ccc(-c2cc3nn(C)cc3c(O[C@H](C)[C@H]3CNC(=O)C3)n2)cc1OC [Example 1, (4R)-4-[(1R)-1-[6-(3,4-Dimethoxyphenyl)-2-methyl-pyrazolo[4,3-c]pyridin-4-yl]oxyethyl]pyrrolidin-2-one]
IC50 [1, 4]: 0.009 µM
IC50 [2, 5]: 5.09 µM
IC50 (FLT3; [6]): 1.53 µM
microsomal stability Cl [% Qh] [3, 7]: <23 % Qh

C[C@@H](Oc1nc(-c2cnn(C(C)(C)C)c2)cc2nn(C)cc12)[C@H]1CNC(=O)C1 [Example 2, (4R)-4-[(1R)-1-[6-(1-tert-Butylpyrazol-4-yl)-2-methyl-pyrazolo[4,3-c]pyridin-4-yl]oxyethyl]pyrrolidin-2-one]
IC50 [1, 8]: 0.007 µM
IC50 [2, 9]: 16.9 µM
IC50 (FLT3; [10]): 7.39 µM
microsomal stability Cl [% Qh] [3, 11]: 81 % Qh
microsomal stability Cl [% Qh] [3, 7]: <23 % Qh

C[C@@H](Oc1nc(-c2cnn(C3CCCCC3)c2)cc2nn(C)cc12)[C@H]1CNC(=O)C1 [Example 7, (R)-4-((R)-1-(6-(1-cyclohexyl-1H-pyrazol-4-yl)-2-methyl-2H-pyrazolo[4,3-c]pyridin-4-yloxy)ethyl)pyrrolidin-2-one]
IC50 [1, 4]: 0.002 µM
IC50 [2, 5]: 2.33 µM
IC50 (FLT3; [6]): 0.452 µM
IC50 (Human GSK3beta; Example numbers of WO 2011/092128): > 10 µM
microsomal stability Cl [% Qh] ([3]; comparison compounds, Example numbers of WO 2011/092128): 79 % Qh

C[C@@H](Oc1nc(-c2cnn(C3CCC(F)(F)CC3)c2)cc2nn(C)cc12)[C@H]1CNC(=O)C1 [Example 10, (4R)-4-[(1R)-1-[6-[1-(4,4-Difluorocyclohexyl)pyrazol-4-yl]-2-methyl-pyrazolo[4,3-c]pyridin-4-yl]oxyethyl]pyrrolidin-2-one]
IC50 [1, 8]: 0.001 µM
IC50 [2, 9]: 0.271 µM
IC50 (FLT3; [10]): 0.312 µM
IC50 (Human GSK3beta; [12]): > 10 µM
microsomal stability Cl [% Qh] [3, 11]: 57 % Qh

C[C@@H](Oc1cc(-c2cscn2)cc2nn(C)cc12)[C@H]1CNC(=O)C1 [Example 29, (4R)-4-[(1R)-1-(2-methyl-6-thiazol-4-yl-indazol-4-yl)oxyethyl]pyrrolidin-2-one]
IC50 ([2]; read-out: AURB-inhibition IC50-value): > 50 µM
IC50 ([2]; read-out: IC50 in μM (AURB-Inhibition)): 0.293 µM
IC50 (Human GSK3beta; [12]): > 10 µM
microsomal stability Cl [% Qh] [3, 11]: 44 % Qh

C[C@@H](Oc1cc(-c2ccc(F)cn2)cc2nn(C)cc12)[C@H]1CNC(=O)C1 [Example 41, (4R)-4-[(1R)-1-[6-(5-fluoro-2-pyridyl)-2-methyl-indazol-4-yl]oxyethyl]pyrrolidin-2-one]
IC50 [1, 8]: 0.001 µM
IC50 [2, 9]: 0.308 µM
IC50 (FLT3; [10]): 0.505 µM
microsomal stability Cl [% Qh] [3, 11]: 37 % Qh
microsomal stability Cl [% Qh] ([3]; percent hepatic blood flow): <23 % Qh

C[C@@H](Oc1cc(-c2ccc(C3CCN(C)CC3)cc2)cc2nn(C)cc12)[C@H]1CNC(=O)C1 [Example 42, (4R)-4-[(1R)-1-[2-methyl-6-[4-(1-methyl-4-piperidyl)-phenyl]indazol-4-yl]oxyethyl]-pyrrolidin-2-one]
IC50 [1, 8]: 0.002 µM
IC50 [2, 9]: 0.63 µM
IC50 (FLT3; [10]): 0.618 µM
microsomal stability Cl [% Qh] [3, 11]: <23 % Qh
microsomal stability Cl [% Qh] ([3]; percent hepatic blood flow): <23 % Qh

C[C@@H](Oc1nc(-c2ccc(C(F)(F)F)nc2)cc2nn(C)cc12)[C@H]1CNC(=O)C1 [Example 61, (4R)-4-[(1R)-1-[2-methyl-6-[6-(trifluoromethyl)-3-pyridyl]pyrazolo[4,3-c]pyridin-4-yl]oxyethyl]pyrrolidin-2-one]
IC50 [1, 8]: 0.002 µM
IC50 [2, 9]: 0.25 µM
IC50 (FLT3; [10]): 0.411 µM
microsomal stability Cl [% Qh] [3, 11]: <23 % Qh
microsomal stability Cl [% Qh] ([3]; percent hepatic blood flow): <23 % Qh

COc1cc(-c2cc3nn(C)cc3c(O[C@H](C)[C@H]3CNC(=O)C3)n2)ccc1OC(C)C [Example 81, (4R)-4-[(1R)-1-[6-(4-isopropoxy-3-methoxy-phenyl)-2-methyl-pyrazolo-[4,3-c]pyridin-4-yl]oxyethyl]-pyrrolidin-2-one]
IC50 [1, 8]: 0.003 µM
IC50 [2, 9]: 0.949 µM
IC50 (FLT3; [10]): 0.514 µM
microsomal stability Cl [% Qh] [3, 11]: <23 % Qh
microsomal stability Cl [% Qh] [3, 7]: <23 % Qh

CCCn1cc(-c2cc(O[C@H](C)[C@H]3CNC(=O)C3)c3cccnc3c2)cn1 [compound 114]
IC50 [2, 9]: 2.54 µM
IC50 (FLT3; [10]): 0.049 µM
IC50 (Human GSK3beta; [12]): > 10 µM
microsomal stability Cl [% Qh] [3, 11]: 26 % Qh

(4R)-4-[(1R)-1-[2-methyl-6-(3-methyl-1-tetrahydropyran-4-yl-pyrazol-4-yl)pyrazolo-[4,3-c]pyridin-4-yl]oxyethyl]-pyrrolidin-2-one [Example 79]
IC50 ([1]; read-out: SYK-inhibiton IC50-value): 0.0364 µM
IC50 (FLT3; read-out: FLT3-inhibition IC50-value): 26.7 µM
